The results in this text go back to patent US20250034212A1, “PEPTIDE” (PEPTIDREAM INC., priority 2021, published 2025).

Starred links: 1 amine or outer side, 2 acyl side, 3 side chain; linkers in the order of their positions; H or OH if unused. Positions of bridges follow the written chain, without caps; N, C: chain ends. Non-standard residues stand in square brackets, D forms with d. Residues, ends and D or L forms follow the SMILES beside them. Groups on a side chain read outwards from the residue. *: point of attachment. CH3O(CH2CH2O)7C2H4CO = COCCOCCOCCOCCOCCOCCOCCOCCC(=O)*; Meglumine = CN(C[C@H](O)[C@@H](O)[C@H](O)[C@H](O)CO)*; Piperazinyl(4-CH2COOH) = O=C(O)CN1CCN(*)CC1; 1Nal = N[C@@H](Cc1cccc2ccccc12)C(=O)O; Gly(NCH2CH2Ph) = O=C(O)CNCCc1ccccc1; 4Pal = N[C@@H](Cc1ccncc1)C(=O)O; CO = O=C([*:1])[*:2]

The target of experiment [1] is T1, recombinant human TGF-β1 (Homo sapiens, UniProt P01137).
T1 construct: purchased R&D systems
The experiment in a line: SBE reporter assay in SBE reporter-HEK293 cells, TGF-β1 stimulation. Format: cell-based. To be noted: TGF-β1 0.13 nM, 18 hours; for inhibition at 62 pM: peptide 0.062 nM; for inhibition at 0.000185 µM: peptide 0.185 nM; for inhibition at 0.00056 µM: peptide 0.56 nM; for inhibition at 0.0017 µM: peptide 1.7 nM; for inhibition at 0.005 µM: peptide 5.0 nM; for inhibition at 0.015 µM: peptide 15.0 nM. A digest of the protocol:
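SBE luciferase reporter HEK293 cells in 0.5% FBS medium, preincubated 20 min with peptide, then stimulated 18 h with 0.13 nM recombinant human TGF-β1. Luminescence read; inhibition scaled with maximal TGF-β signal as 0% and unstimulated as 100%.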

The target in experiment [2] is T1, recombinant human TGF-β1. The experiment is described as follows: SPR intermolecular interaction test, TGF-β1 immobilized on CM3 sensor chip (Biacore T200). Format: binding. As to conditions: Single Cycle Kinetics, human TGF-β1. Here is the method:
In this Example, (1) the activity of binding to TGF-β for various peptides consisting of the amino acid sequences set forth in SEQ ID NOs: 2-33 synthesized in Examples 1 to 5 and 7 was evaluated. (2) The activity and selectivity of binding of the peptide consisting of the amino acid sequence set forth in SEQ ID NO: 13 synthesized in Example 2 against two isoforms of TGF-β (TGF-β1 and β2) were checked. For this purpose, the intermolecular interaction of each peptide against TGF-β was tested by surface plasmon resonance (SPR) in the method described below. Specific test methods are described below.
A CM3 sensor chip (Global Life Science Technologies Japan Co., Ltd.) was inserted into a BiacoreT200 (Global Life Science Technologies Japan Co., Ltd.). Three priming runs were performed using running buffer: HBS-EP+ (Global Life Science Technologies Japan Co., Ltd.). The system was then equilibrated at a flow rate of 30 μL/min.
Subsequently, 50 μL of 60 mM EDC solution (Global Life Science Technologies Japan Co., Ltd.) and 50 μL of 650 mM NHS solution (Global Life Science Technologies Japan Co., Ltd.) were mixed. Next, the reaction was carried out at a flow rate of 10 μL/min for 420 seconds. Then, 150 μL of 0.2 μM TGF-β solution diluted in 10 mM acetic acid solution (pH 5.0) was prepared and reacted at a flow rate of 10 μL/min for 420 seconds to immobilize TGF-β on the CM3 sensor chip. TGF-β was human-derived TGF-β1 or β2 (recombinant human TGF-β1, 2) and was obtained from R&D systems. After immobilization, capping was performed by reacting with 1.0 M ethanolamine aqueous solution (Global Life Science Technologies Japan Co., Ltd.) at a flow rate of […] for 420 seconds.
A liquid prepared by dissolving each peptide at 10 mM in DMSO solution was diluted with running buffer to prepare a peptide-dissolved solution at a final concentration of 10 μM. Subsequently, 50 nM, 25 nM, 12.5 nM, 5 nM, and 2.5 nM peptide solutions were prepared. Using the above samples, the kinetics of each peptide against TGF-β was obtained by SPR measurement.
The kinetics evaluation model was Single Cycle Kinetics, and curve fitting was performed using Biacore T200 Evaluation Software Version 3.0 (Global Life Science Technologies Japan Co., Ltd.). The binding of various peptides to TGF-β was evaluated by performing least-squares curve fitting on the obtained sensorgram to calculate the KD value.

T1 sequence (P01137 279-390 limits assumed): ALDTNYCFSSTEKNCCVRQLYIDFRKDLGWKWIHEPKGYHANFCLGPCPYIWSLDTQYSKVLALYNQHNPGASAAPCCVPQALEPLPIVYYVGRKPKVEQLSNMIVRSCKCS

With `CC(C)[C@@H]1NC(=O)CN(CCc2ccccc2)C(=O)[C@H](CCCCNC(=O)N(C)C[C@H](O)[C@@H](O)[C@H](O)[C@H](O)CO)NC(=O)[C@H](CC(=O)O)NC(=O)[C@H](Cc2ccncc2)NC(=O)[C@H](C(C)C)NC(=O)[C@H](CC(N)=O)NC(=O)[C@H](C(C)C)NC(=O)[C@H](C(C)C)NC(=O)[C@H](Cc2cccc3ccccc23)NC(=O)[C@H](Cc2ccccc2)NC(=O)CSC[C@@H](C(=O)NCC(N)=O)NC(=O)[C@H](CCCCNC(=O)N2CCN(CC(=O)O)CC2)NC(=O)[C@H](Cc2c[nH]cn2)NC(=O)[C@H](Cc2ccc(O)cc2)NC(=O)[C@H](Cc2cccc3ccccc23)NC1=O` [TGFb1_023] ({CH2CO}-F[1Nal]VVNV[4Pal]DK([CO-Meglumine])[Gly(NCH2CH2Ph)]V[1Nal]YHK([CO-Piperazinyl(4-CH2COOH)])CG-NH2; thioether N-16), in experiment [1], the inhibition at 62 pM turned out to be 8.58%, the inhibition at 0.000185 µM was determined as 24.4%, the inhibition at 0.00056 µM turned out to be 49.7% and the inhibition at 0.0017 µM was 82.3%. For the same compound, in experiment [1], the inhibition at 0.005 µM was found to be 96% and the inhibition at 0.015 µM was found to be 99.5%. Further, in experiment [2], the Kd turned out to be 1.04 nM.
For `CC(C)[C@@H]1NC(=O)CN(CCc2ccccc2)C(=O)[C@H](CCC(=O)O)NC(=O)[C@H](CC(=O)O)NC(=O)[C@H](Cc2ccncc2)NC(=O)[C@H](C(C)C)NC(=O)[C@H](CC(N)=O)NC(=O)[C@H](CCCCNC(=O)N(C)C[C@H](O)[C@@H](O)[C@H](O)[C@H](O)CO)NC(=O)[C@H](C(C)C)NC(=O)[C@H](Cc2cccc3ccccc23)NC(=O)[C@H](Cc2ccccc2)NC(=O)CSC[C@@H](C(=O)NCC(N)=O)NC(=O)[C@H](CCCCNC(=O)N2CCN(CC(=O)O)CC2)NC(=O)[C@H](Cc2c[nH]cn2)NC(=O)[C@H](Cc2ccc(O)cc2)NC(=O)[C@H](Cc2cccc3ccccc23)NC1=O` [TGFb1_024] ({CH2CO}-F[1Nal]VK([CO-Meglumine])NV[4Pal]DE[Gly(NCH2CH2Ph)]V[1Nal]YHK([CO-Piperazinyl(4-CH2COOH)])CG-NH2; thioether N-16), in experiment [1], the inhibition at 62 pM is 5.79%, the inhibition at 0.000185 µM worked out at 16.6%, the inhibition at 0.00056 µM amounted to 45% and the inhibition at 0.0017 µM is 80.2%. For the same compound, in experiment [1], the inhibition at 0.005 µM is 95.5% and the inhibition at 0.015 µM came out at 98.9%. Also, the Kd in experiment [2] was determined as 1.04 nM.
Consider `CC(C)[C@@H]1NC(=O)CN(CCc2ccccc2)C(=O)[C@H](CCCCNC(=O)N2CCN(CC(=O)O)CC2)NC(=O)[C@H](CC(=O)O)NC(=O)[C@H](Cc2ccncc2)NC(=O)[C@H](C(C)C)NC(=O)[C@H](CC(N)=O)NC(=O)[C@H](CCCCNC(=O)N(C)C[C@H](O)[C@@H](O)[C@H](O)[C@H](O)CO)NC(=O)[C@H](C(C)C)NC(=O)[C@H](Cc2cccc3ccccc23)NC(=O)[C@H](Cc2ccccc2)NC(=O)CSC[C@@H](C(=O)NCC(N)=O)NC(=O)[C@H](CCCCNC(=O)N2CCN(CC(=O)O)CC2)NC(=O)[C@H](Cc2c[nH]cn2)NC(=O)[C@H](Cc2ccc(O)cc2)NC(=O)[C@H](Cc2cccc3ccccc23)NC1=O` [TGFb1_025] ({CH2CO}-F[1Nal]VK([CO-Meglumine])NV[4Pal]DK([CO-Piperazinyl(4-CH2COOH)])[Gly(NCH2CH2Ph)]V[1Nal]YHK([CO-Piperazinyl(4-CH2COOH)])CG-NH2; thioether N-16), for which, in experiment [1], the inhibition at 62 pM worked out at 4.81%, the inhibition at 0.000185 µM amounted to 18.4%, the inhibition at 0.00056 µM turned out to be 43.3% and the inhibition at 0.0017 µM was 77.5%. Also, in experiment [1], the inhibition at 0.005 µM was found to be 94.7% and the inhibition at 0.015 µM stood at 99.4%. In experiment [2], the Kd came out at 0.83 nM.
Regarding `CC(C)[C@@H]1NC(=O)CN(CCc2ccccc2)C(=O)[C@H](CCCCNC(=O)N(C)C[C@H](O)[C@@H](O)[C@H](O)[C@H](O)CO)NC(=O)[C@H](CC(=O)O)NC(=O)[C@H](Cc2ccncc2)NC(=O)[C@H](C(C)C)NC(=O)[C@H](CC(N)=O)NC(=O)[C@H](CCCCNC(=O)N(C)C[C@H](O)[C@@H](O)[C@H](O)[C@H](O)CO)NC(=O)[C@H](C(C)C)NC(=O)[C@H](Cc2cccc3ccccc23)NC(=O)[C@H](Cc2ccccc2)NC(=O)CSC[C@@H](C(=O)NCC(N)=O)NC(=O)[C@H](CCCCNC(=O)N2CCN(CC(=O)O)CC2)NC(=O)[C@H](Cc2c[nH]cn2)NC(=O)[C@H](Cc2ccc(O)cc2)NC(=O)[C@H](Cc2cccc3ccccc23)NC1=O` [TGFb1_026] ({CH2CO}-F[1Nal]VK([CO-Meglumine])NV[4Pal]DK([CO-Meglumine])[Gly(NCH2CH2Ph)]V[1Nal]YHK([CO-Piperazinyl(4-CH2COOH)])CG-NH2; thioether N-16), in experiment [1], the inhibition at 62 pM amounted to 6.85%, the inhibition at 0.000185 µM amounted to 17.8%, the inhibition at 0.00056 µM is 41.4% and the inhibition at 0.0017 µM came to 74.3%. In experiment [1], the inhibition at 0.005 µM amounted to 93.4% and the inhibition at 0.015 µM is 98%. Also, the Kd in experiment [2] was determined as 1.03 nM.
With `CC(C)[C@@H]1NC(=O)CN(CCc2ccccc2)C(=O)[C@H](CCCCNC(=O)N(C)C[C@H](O)[C@@H](O)[C@H](O)[C@H](O)CO)NC(=O)[C@H](CC(=O)O)NC(=O)[C@H](Cc2ccncc2)NC(=O)[C@H](C(C)C)NC(=O)[C@H](CC(N)=O)NC(=O)[C@H](CCCCNC(=O)N(C)C[C@H](O)[C@@H](O)[C@H](O)[C@H](O)CO)NC(=O)[C@H](C(C)C)NC(=O)[C@H](Cc2cccc3ccccc23)NC(=O)[C@H](Cc2ccccc2)NC(=O)CSC[C@@H](C(=O)NCC(N)=O)NC(=O)[C@H](CCC(=O)O)NC(=O)[C@H](Cc2c[nH]cn2)NC(=O)[C@H](Cc2ccc(O)cc2)NC(=O)[C@H](Cc2cccc3ccccc23)NC1=O` [TGFb1_030] ({CH2CO}-F[1Nal]VK([CO-Meglumine])NV[4Pal]DK([CO-Meglumine])[Gly(NCH2CH2Ph)]V[1Nal]YHECG-NH2; thioether N-16), in experiment [1], the inhibition at 62 pM worked out at 10.9%, the inhibition at 0.000185 µM stood at 14.3%, the inhibition at 0.00056 µM is 29.9% and the inhibition at 0.0017 µM worked out at 52.5%. In experiment [1], the inhibition at 0.005 µM is 80.8% and the inhibition at 0.015 µM was found to be 95.2%. For the same compound, in experiment [2], the Kd was found to be 1.13 nM.
As for `COCCOCCOCCOCCOCCOCCOCCOCCC(=O)NCCCC[C@H](NC(=O)CNC(=O)[C@@H]1CSCC(=O)N[C@@H](Cc2ccccc2)C(=O)N[C@@H](Cc2cccc3ccccc23)C(=O)N[C@@H](C(C)C)C(=O)N[C@@H](C(C)C)C(=O)N[C@@H](CC(N)=O)C(=O)N[C@@H](C(C)C)C(=O)N[C@@H](Cc2ccncc2)C(=O)N[C@@H](CC(=O)O)C(=O)N[C@@H](CC(=O)O)C(=O)N(CCc2ccccc2)CC(=O)N[C@@H](C(C)C)C(=O)N[C@@H](Cc2cccc3ccccc23)C(=O)N[C@@H](Cc2ccc(O)cc2)C(=O)N[C@@H](Cc2c[nH]cn2)C(=O)N[C@@H](CCCCNC(=O)N2CCN(CC(=O)O)CC2)C(=O)N1)C(N)=O` [TGFb1_031] ({CH2CO}-F[1Nal]VVNV[4Pal]DD[Gly(NCH2CH2Ph)]V[1Nal]YHK([CO-Piperazinyl(4-CH2COOH)])CGK(CH3O(CH2CH2O)7C2H4CO)-NH2; thioether N-16), in experiment [1], the inhibition at 62 pM stood at 9.29%, the inhibition at 0.000185 µM is 20.1%, the inhibition at 0.00056 µM stood at 51.9% and the inhibition at 0.0017 µM was 84.9%. In addition, in experiment [1], the inhibition at 0.005 µM came to 96.7% and the inhibition at 0.015 µM was 99.1%. Further, the Kd in experiment [2] amounted to 0.91 nM.
